From patent US20100267637A1, “TREATMENT OF MELANOMA WITH ALPHA THYMOSIN PEPTIDES IN COMBINATION WITH A KINASE INHIBITOR” (SciClone Pharmaceuticals, Inc., priority 2007, published 2010)

Test system: murine B16 melanoma cells
Experiment: Anti-tumor effect: tumor size / tumor volume in mice bearing subcutaneous B16 melanoma
Assay type: in vivo, C57BL/6 mice
Design: key to Tumor measurement L (length) / Tumor measurement W (width): The sign “—” indicates that tumor does not reach a measurable size
Conditions: for Tumor Volume (cm^3) (Mean ± SD): group mean; for PI (TV), percent inhibition of tumor volume: vs vehicle; for Tumor volumes on Day 15: Length × Width × Width/2
Protocol: The toxic effects of the dosing regimens were also monitored. […] Meanwhile 9H10 was given in two groups via i.p. on Day 3, 6 and 9. […] Tumor volume and body weight were measured every three days, and tumor weights were measured on Day 16 at the end of the study.
As per aseptic tissue culture procedures, one vial of B16 melanoma cells was removed from the liquid nitrogen stock, and placed into a 37° C. water bath. Gentle swirling was conducted until the content of the vial was thawed. Using tissue culture/sterile procedures, the cells were immediately centrifuged with a TD5A-WS centrifuge at 1000 rpm, 20-25° C., 5 min. After centrifugation, the cells were suspended in 0.1 to 0.5 mL normal saline (NS) and subcutaneously injected into 10 mice (0.1 mL/mouse, about 1×10^6 cells). After 7-10 days, when the tumor diameter was approximately 1 cm, the animals were euthanized with CO2 overdose and the tumors excised. The procedure was repeated with 20 mice to generate a sufficient number of B16 melanoma cells with adequate transplantability.
On the day of tumor implantation, approximately 1×10^6 cells in 0.1 mL were subcutaneously injected on the right axillary area of each mouse. The day of tumor implantation was defined as Day 0.
On Day 3, the animals were randomly assigned into nine different weight-matched and tumor-size-matched groups. Dosing was started on Day 3 using the regimen according to Table 2.
From Day 1 to Day 15, mortality and moribundity were checked twice daily, the body weights were recorded once every 3 days, and tumors were measured using a caliper once every 3 days. At the end of the study (Day 16), the animals were euthanized by CO2 asphyxiation, and the tumors were excised and weighed.
Based on the tumor size, the tumor volume (TV) was calculated with the formula: [TV=(Length×Width×Width)/2]. And the percent inhibition (PI) of TV (PITV) was calculated according to the equation below:
PITV(%)=(TV vehicle−TVdrug treated)/TV vehicle×100
Inter-group comparison was performed in terms of tumor volume, tumor weight and body weight, using a student's t test. P values of less than 0.05 were considered to be statistically significant.

## CN(C)/N=N/c1[nH]cnc1C(N)=O [DTIC, Dacarbazine]
Day 3, animal F1
  Tumor measurement L (length): —
  Tumor measurement W (width): —
  Tumor volume: 0.0000 cm^3
Day 3, animal F2
  Tumor measurement L (length): —
  Tumor measurement W (width): —
  Tumor volume: 0.0000 cm^3
Day 3, animal F3
  Tumor measurement L (length): 0.20 cm
  Tumor measurement W (width): 0.20 cm
  Tumor volume: 0.0040 cm^3
Day 3, animal F4
  Tumor measurement L (length): —
  Tumor measurement W (width): —
  Tumor volume: 0.0000 cm^3
Day 3, animal F5
  Tumor measurement L (length): —
  Tumor measurement W (width): —
  Tumor volume: 0.0000 cm^3
Day 3, animal M1
  Tumor measurement L (length): —
  Tumor measurement W (width): —
  Tumor volume: 0.0000 cm^3
Day 3, animal M2
  Tumor measurement L (length): 0.10 cm
  Tumor measurement W (width): 0.10 cm
  Tumor volume: 0.0005 cm^3
Day 3, animal M3
  Tumor measurement L (length): —
  Tumor measurement W (width): —
  Tumor volume: 0.0000 cm^3
Day 3, animal M4
  Tumor measurement L (length): —
  Tumor measurement W (width): —
  Tumor volume: 0.0000 cm^3
Day 3, animal M5
  Tumor measurement L (length): 0.10 cm
  Tumor measurement W (width): 0.10 cm
  Tumor volume: 0.0005 cm^3
Day 3
  Tumor Volume (cm^3) (Mean ± SD): 0.001 ± 0.0012 cm^3
  PI (TV), percent inhibition of tumor volume: −400.00%
Day 6, animal F1
  Tumor measurement L (length): —
  Tumor measurement W (width): —
  Tumor volume: 0.0000 cm^3
Day 6, animal F2
  Tumor measurement L (length): —
  Tumor measurement W (width): —
  Tumor volume: 0.0000 cm^3
Day 6, animal F3
  Tumor measurement L (length): 0.10 cm
  Tumor measurement W (width): 0.10 cm
  Tumor volume: 0.0005 cm^3
Day 6, animal F4
  Tumor measurement L (length): —
  Tumor measurement W (width): —
  Tumor volume: 0.0000 cm^3
Day 6, animal F5
  Tumor measurement L (length): —
  Tumor measurement W (width): —
  Tumor volume: 0.0000 cm^3
Day 6, animal M1
  Tumor measurement L (length): —
  Tumor measurement W (width): —
  Tumor volume: 0.0000 cm^3
Day 6, animal M2
  Tumor measurement L (length): —
  Tumor measurement W (width): —
  Tumor volume: 0.0000 cm^3
Day 6, animal M3
  Tumor measurement L (length): —
  Tumor measurement W (width): —
  Tumor volume: 0.0000 cm^3
Day 6, animal M4
  Tumor measurement L (length): —
  Tumor measurement W (width): —
  Tumor volume: 0.0000 cm^3
Day 6, animal M5
  Tumor measurement L (length): —
  Tumor measurement W (width): —
  Tumor volume: 0.0000 cm^3
Day 6
  Tumor Volume (cm^3) (Mean ± SD): 0.000 ± 0.0002 cm^3
  PI (TV), percent inhibition of tumor volume: 90.91%
Day 9, animal F1
  Tumor measurement L (length): 0.20 cm
  Tumor measurement W (width): 0.20 cm
  Tumor volume: 0.0040 cm^3
Day 9, animal F2
  Tumor volume: 0.0000 cm^3
Day 9, animal F3
  Tumor measurement L (length): 0.10 cm
  Tumor measurement W (width): 0.10 cm
  Tumor volume: 0.0005 cm^3
Day 9, animal F4
  Tumor measurement L (length): 0.10 cm
  Tumor measurement W (width): 0.10 cm
  Tumor volume: 0.0005 cm^3
Day 9, animal F5
  Tumor measurement L (length): 0.10 cm
  Tumor measurement W (width): 0.10 cm
  Tumor volume: 0.0005 cm^3
Day 9, animal M1
  Tumor measurement L (length): 0.30 cm
  Tumor measurement W (width): 0.30 cm
  Tumor volume: 0.0135 cm^3
Day 9, animal M2
  Tumor measurement L (length): 0.30 cm
  Tumor measurement W (width): 0.30 cm
  Tumor volume: 0.0135 cm^3
Day 9, animal M3
  Tumor measurement L (length): 0.30 cm
  Tumor measurement W (width): 0.30 cm
  Tumor volume: 0.0135 cm^3
Day 9, animal M4
  Tumor measurement L (length): 0.30 cm
  Tumor measurement W (width): 0.30 cm
  Tumor volume: 0.0135 cm^3
Day 9, animal M5
  Tumor measurement L (length): 0.10 cm
  Tumor measurement W (width): 0.10 cm
  Tumor volume: 0.0005 cm^3
Day 9
  Tumor Volume (cm^3) (Mean ± SD): 0.006 ± 0.0065 cm^3
  PI (TV), percent inhibition of tumor volume: 71.15%
Day 12, animal F1
  Tumor volume: 0.0625 cm^3
  Tumor measurements on Day 12, L: 0.50 cm
  Tumor measurements on Day 12, W: 0.50 cm
Day 12, animal F2
  Tumor volume: 0.0135 cm^3
  Tumor measurements on Day 12, L: 0.30 cm
  Tumor measurements on Day 12, W: 0.30 cm
Day 12, animal F3
  Tumor volume: 0.0135 cm^3
  Tumor measurements on Day 12, L: 0.30 cm
  Tumor measurements on Day 12, W: 0.30 cm
Day 12, animal F4
  Tumor volume: 0.1715 cm^3
  Tumor measurements on Day 12, L: 0.70 cm
  Tumor measurements on Day 12, W: 0.70 cm
Day 12, animal F5
  Tumor volume: 0.1350 cm^3
  Tumor measurements on Day 12, L: 0.3 cm
  Tumor measurements on Day 12, W: 0.30 cm
Day 12, animal M1
  Tumor volume: 0.1715 cm^3
  Tumor measurements on Day 12, L: 0.70 cm
  Tumor measurements on Day 12, W: 0.70 cm
Day 12, animal M2
  Tumor volume: 0.3645 cm^3
  Tumor measurements on Day 12, L: 0.90 cm
  Tumor measurements on Day 12, W: 0.90 cm
Day 12, animal M3
  Tumor volume: 0.5000 cm^3
  Tumor measurements on Day 12, L: 1.00 cm
  Tumor measurements on Day 12, W: 1.00 cm
Day 12, animal M4
  Tumor volume: 0.5000 cm^3
  Tumor measurements on Day 12, L: 1.00 cm
  Tumor measurements on Day 12, W: 1.00 cm
Day 12, animal M5
  Tumor volume: 0.0135 cm^3
  Tumor measurements on Day 12, L: 0.30 cm
  Tumor measurements on Day 12, W: 0.30 cm
Day 12
  Tumor Volume (cm^3) (Mean ± SD): 0.195 ± 0.1932 cm^3
  PI (TV), percent inhibition of tumor volume: 43.22%
Day 15, animal F1
  Tumor measurements on Day 15, L: 0.80 cm
  Tumor volumes on Day 15: 0.2560 cm^3
  Tumor measurements on Day 15, W: 0.80 cm
Day 15, animal F2
  Tumor measurements on Day 15, L: 0.50 cm
  Tumor volumes on Day 15: 0.0625 cm^3
  Tumor measurements on Day 15, W: 0.50 cm
Day 15, animal F3
  Tumor measurements on Day 15, L: 0.60 cm
  Tumor volumes on Day 15: 0.1080 cm^3
  Tumor measurements on Day 15, W: 0.60 cm
Day 15, animal F4
  Tumor measurements on Day 15, L: 0.70 cm
  Tumor volumes on Day 15: 0.1715 cm^3
  Tumor measurements on Day 15, W: 0.70 cm
Day 15, animal F5
  Tumor measurements on Day 15, L: 0.60 cm
  Tumor volumes on Day 15: 0.1080 cm^3
  Tumor measurements on Day 15, W: 0.60 cm
Day 15, animal M1
  Tumor measurements on Day 15, L: 1.00 cm
  Tumor volumes on Day 15: 0.5000 cm^3
  Tumor measurements on Day 15, W: 1.00 cm
Day 15, animal M2
  Tumor measurements on Day 15, L: 1.20 cm
  Tumor volumes on Day 15: 0.8640 cm^3
  Tumor measurements on Day 15, W: 1.20 cm
Day 15, animal M3
  Tumor measurements on Day 15, L: 1.00 cm
  Tumor volumes on Day 15: 0.5000 cm^3
  Tumor measurements on Day 15, W: 1.00 cm
Day 15, animal M4
  Tumor measurements on Day 15, L: 1.20 cm
  Tumor volumes on Day 15: 0.8640 cm^3
  Tumor measurements on Day 15, W: 1.20 cm
Day 15, animal M5
  Tumor measurements on Day 15, L: 0.90 cm
  Tumor volumes on Day 15: 0.3645 cm^3
  Tumor measurements on Day 15, W: 0.90 cm
Day 15
  Tumor Volume (cm^3) (Mean ± SD): 0.380 ± 0.2991 cm^3
  PI (TV), percent inhibition of tumor volume: 48.12%
